What was measured:
[1] = biological target: Thymidine kinase 2, mitochondrial (Homo sapiens) (UniProt O00142); assay: Inhibitory effect against phosphorylation of [methyl-3H]dThd by Thymidine Kinase 2 (TK-2)
[2] = biological target: Thymidine kinase (Human herpesvirus 1); assay: Compound was evaluated for inhibitory effect against phosphorylation of [methyl-3H]dThd by HSV-1 Thymidine kinase
[3] = biological target: Thymidine kinase (Human herpesvirus 1); assay: Inhibitory activity against HSV-1 Thymidine kinase in OST-TK-/HSV-1 TK+ cell line in combination with BVAraU
[4] = biological target: Thymidine kinase (Human herpesvirus 1); assay: Inhibitory activity against HSV-1 Thymidine kinase in OST-TK-/HSV-1 TK+ cell line in combination with gancicclovir

Chain of Thymidine kinase 2, mitochondrial (Homo sapiens) (O00142 whole entry, looked up): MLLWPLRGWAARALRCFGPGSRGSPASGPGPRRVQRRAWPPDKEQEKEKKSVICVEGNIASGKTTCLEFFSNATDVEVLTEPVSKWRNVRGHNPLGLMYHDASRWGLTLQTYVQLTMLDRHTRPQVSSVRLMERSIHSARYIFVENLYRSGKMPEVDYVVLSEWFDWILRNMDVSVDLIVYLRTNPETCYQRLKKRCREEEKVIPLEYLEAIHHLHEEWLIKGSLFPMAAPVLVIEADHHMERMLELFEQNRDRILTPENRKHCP

SMILES	IC50 [1] [µM]	further results
Cc1cn(C/C=C\COCc2ccccc2)c(=O)[nH]c1=O [1-(4-Benzyloxy-but-2-enyl)-5-methyl-1H-pyrimidine-2,4-dione]	22	
COc1ccc(C(OCC2OC(n3cc(C)c(=O)[nH]c3=O)CC2O)(c2ccccc2)c2ccc(OC)cc2)cc1 (stereo not drawn) [1-{5-[Bis-(4-methoxy-phenyl)-phenyl-methoxymethyl]-4-hydroxy-tetrahydro-furan-2-yl}-5-methyl-1H-pyrimidine-2,4-dione]		IC50 [2]: 14 µM
Cc1cn(C/C=C\COC(=O)C(C)(C)C)c(=O)[nH]c1=O [2,2-Dimethyl-propionic acid 4-(5-methyl-2,4-dioxo-3,4-dihydro-2H-pyrimidin-1-yl)-but-2-enyl ester]	40	
Cc1cn(Cc2ccccc2COC(c2ccccc2)(c2ccccc2)c2ccccc2)c(=O)[nH]c1=O [5-Methyl-1-(2-trityloxymethyl-benzyl)-1H-pyrimidine-2,4-dione]		IC50 [3]: 0.008 µM; IC50 [4]: 0.002 µM
Cc1cn(CC#CCOC(c2ccccc2)(c2ccccc2)c2ccccc2)c(=O)[nH]c1=O [5-Methyl-1-(4-trityloxy-but-2-ynyl)-1H-pyrimidine-2,4-dione]		IC50 [2]: 3.1 µM

Continued, in another order:

IC50 [1] [µM]	SMILES	further results
30	Cc1cn(C/C=C\COC(=O)c2ccccc2)c(=O)[nH]c1=O [Benzoic acid 4-(5-methyl-2,4-dioxo-3,4-dihydro-2H-pyrimidin-1-yl)-but-2-enyl ester]	
4.6	Cc1cn(C/C=C\COC(=O)C(c2ccccc2)c2ccccc2)c(=O)[nH]c1=O [Diphenyl-acetic acid 4-(5-methyl-2,4-dioxo-3,4-dihydro-2H-pyrimidin-1-yl)-but-2-enyl ester]	

From BindingDB's records for doi:10.1021/jm011128+ (2002)
